According to ChEMBL document CHEMBL4311945, “Development of Dual Chitinase Inhibitors as Potential New Treatment for Respiratory System Diseases” (J Med Chem, 2019):
In brackets after ≈: the same amount, converted by molar mass.

Experiments:
[1] = biological target: T1, Voltage-gated inwardly rectifying potassium channel KCNH2 (Homo sapiens, UniProt Q12809); experiment: Displacement of Tracer Red from human ERG by fluorescence polarization assay
[2] = biological target: Chitotriosidase-1 (Mus musculus, UniProt Q9D7Q1); experiment: Inhibition of full-length C-terminal his-tagged mouse CHIT1 expressed in CHO-K1 cells assessed as reduction in chitinolytic activity using 4-methylumbelliferyl-beta-D-N,N',N\"-triacetylchitotrioside as substrate after 60 mins by fluorometric assay; type: cell-based
Chitotriosidase-1 (Mus musculus, UniProt Q9D7Q1), sequence (Q9D7Q1 whole entry): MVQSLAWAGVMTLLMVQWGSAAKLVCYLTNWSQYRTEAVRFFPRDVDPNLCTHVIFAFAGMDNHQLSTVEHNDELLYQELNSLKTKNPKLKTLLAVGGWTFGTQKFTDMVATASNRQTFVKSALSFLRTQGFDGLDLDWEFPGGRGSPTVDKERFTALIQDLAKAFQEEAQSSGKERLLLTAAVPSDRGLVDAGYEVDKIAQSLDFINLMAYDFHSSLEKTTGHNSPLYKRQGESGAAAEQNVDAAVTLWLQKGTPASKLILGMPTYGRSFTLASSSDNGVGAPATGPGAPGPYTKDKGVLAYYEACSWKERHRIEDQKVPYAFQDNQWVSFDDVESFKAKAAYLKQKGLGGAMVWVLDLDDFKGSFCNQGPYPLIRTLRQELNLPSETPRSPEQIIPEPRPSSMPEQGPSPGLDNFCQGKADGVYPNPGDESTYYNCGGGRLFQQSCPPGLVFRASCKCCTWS

[3] = biological target: Acidic mammalian chitinase (Mus musculus, UniProt Q91XA9); experiment: Inhibition of full-length C-terminal his-tagged mouse acidic mammalian chitinase expressed in CHO-K1 cells assessed as reduction in chitinolytic activity using 4-methylumbelliferyl-beta-D-N,N'-diacetylchitobioside hydrate as substrate after 60 mins by fluorometric assay
Acidic mammalian chitinase (Mus musculus, UniProt Q91XA9), sequence (Q91XA9 whole entry): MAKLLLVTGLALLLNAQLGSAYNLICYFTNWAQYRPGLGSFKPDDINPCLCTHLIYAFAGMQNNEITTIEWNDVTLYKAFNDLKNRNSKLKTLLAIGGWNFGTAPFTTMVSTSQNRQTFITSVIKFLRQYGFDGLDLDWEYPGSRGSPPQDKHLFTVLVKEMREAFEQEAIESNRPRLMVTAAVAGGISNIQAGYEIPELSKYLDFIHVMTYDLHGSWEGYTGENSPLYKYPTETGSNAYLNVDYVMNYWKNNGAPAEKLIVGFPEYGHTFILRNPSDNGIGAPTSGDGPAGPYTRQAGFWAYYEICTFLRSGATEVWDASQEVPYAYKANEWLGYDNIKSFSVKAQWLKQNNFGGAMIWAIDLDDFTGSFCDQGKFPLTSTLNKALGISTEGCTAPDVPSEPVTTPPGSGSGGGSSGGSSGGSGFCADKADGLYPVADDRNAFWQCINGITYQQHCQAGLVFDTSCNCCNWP

[4] = biological target: Chitotriosidase-1 (Homo sapiens, UniProt Q13231); experiment: Inhibition of full-length C-terminal his-tagged human CHIT1 expressed in CHOK1 cells assessed as reduction in chitinolytic activity using 4-methylumbelliferyl-beta-D-N,N',N\"-triacetylchitotrioside as substrate after 60 mins by fluorometric assay; type: cell-based
Chitotriosidase-1 (Homo sapiens, UniProt Q13231), sequence (Q13231 whole entry): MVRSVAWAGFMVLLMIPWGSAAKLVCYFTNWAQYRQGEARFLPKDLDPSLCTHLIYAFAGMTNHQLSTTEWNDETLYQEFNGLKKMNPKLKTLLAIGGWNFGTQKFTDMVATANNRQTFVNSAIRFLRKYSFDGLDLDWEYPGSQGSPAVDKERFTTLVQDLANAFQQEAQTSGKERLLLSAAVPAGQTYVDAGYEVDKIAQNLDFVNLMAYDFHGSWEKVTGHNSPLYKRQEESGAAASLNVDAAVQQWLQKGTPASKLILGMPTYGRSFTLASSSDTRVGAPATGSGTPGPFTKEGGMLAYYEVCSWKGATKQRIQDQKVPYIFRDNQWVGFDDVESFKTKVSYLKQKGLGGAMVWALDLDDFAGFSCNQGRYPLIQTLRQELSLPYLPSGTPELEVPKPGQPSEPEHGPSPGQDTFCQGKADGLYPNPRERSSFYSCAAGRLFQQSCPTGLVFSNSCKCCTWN

[5] = Lipophilicity, logD of the compound at pH 7.4; type: physicochemical; settings: buffer
[6] = biological target: dopamine transporter (DAT) (Homo sapiens, UniProt Q01959); experiment: Displacement of [3H]BTCP from recombinant human dopamine transporter at 10 uM after 120 mins by scintillation counting analysis relative to control; type: ADME; settings: probe [3H]BTCP
dopamine transporter (DAT), sequence (Q01959 whole entry): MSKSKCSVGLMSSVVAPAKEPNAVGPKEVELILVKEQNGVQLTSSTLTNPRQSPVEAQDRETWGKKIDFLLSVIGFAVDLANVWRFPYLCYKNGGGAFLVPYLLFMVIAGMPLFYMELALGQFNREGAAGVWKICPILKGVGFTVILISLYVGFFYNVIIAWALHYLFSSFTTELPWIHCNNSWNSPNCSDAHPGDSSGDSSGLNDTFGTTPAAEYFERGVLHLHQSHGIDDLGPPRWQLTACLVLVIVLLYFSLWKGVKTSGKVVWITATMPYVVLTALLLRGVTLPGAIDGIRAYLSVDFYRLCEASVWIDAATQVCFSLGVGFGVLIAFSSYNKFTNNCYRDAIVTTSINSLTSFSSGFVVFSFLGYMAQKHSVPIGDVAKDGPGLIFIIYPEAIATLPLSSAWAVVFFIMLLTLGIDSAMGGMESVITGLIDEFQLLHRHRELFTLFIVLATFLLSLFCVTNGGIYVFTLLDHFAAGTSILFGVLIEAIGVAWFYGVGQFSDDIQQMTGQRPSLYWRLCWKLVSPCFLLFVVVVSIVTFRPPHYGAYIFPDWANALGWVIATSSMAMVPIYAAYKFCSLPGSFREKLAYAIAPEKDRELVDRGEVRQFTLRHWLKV

[7] = system: Mus musculus; experiment: Antiinflammatory activity in C57BL/6 mouse model of house-dust mite induced pulmonary inflammation assessed as reduction in total CD45 positive cells in bronchoalveolar lavage fluid at 50 mg/kg, po administered once daily starting from day 7 post house-dust mite challenge and measured on day 19 by flow cytometric method relative to control; type: functional; design: scale not given: the % may be the effect or the level left
[8] = Drug uptake in BALB/c mouse brain at 10 mg/kg, po administered as single dose after 2 hrs by LC/MS/MS analysis; type: ADME, organism-based; settings: in vivo
[9] = biological target: Sodium-dependent dopamine transporter (Homo sapiens, UniProt Q01959); experiment: Inhibition of radioligand binding to human dopamine transporter by radioligand binding assay; type: ADME
Sodium-dependent dopamine transporter (Homo sapiens, UniProt Q01959), sequence (Q01959 whole entry): as above

[10] = biological target: Sodium-dependent dopamine transporter (Rattus norvegicus, UniProt P23977); experiment: Displacement of [3H]DA from rat dopamine transporter after 15 mins by scintillation counting analysis; type: ADME
Sodium-dependent dopamine transporter (Rattus norvegicus, UniProt P23977), sequence (P23977 whole entry): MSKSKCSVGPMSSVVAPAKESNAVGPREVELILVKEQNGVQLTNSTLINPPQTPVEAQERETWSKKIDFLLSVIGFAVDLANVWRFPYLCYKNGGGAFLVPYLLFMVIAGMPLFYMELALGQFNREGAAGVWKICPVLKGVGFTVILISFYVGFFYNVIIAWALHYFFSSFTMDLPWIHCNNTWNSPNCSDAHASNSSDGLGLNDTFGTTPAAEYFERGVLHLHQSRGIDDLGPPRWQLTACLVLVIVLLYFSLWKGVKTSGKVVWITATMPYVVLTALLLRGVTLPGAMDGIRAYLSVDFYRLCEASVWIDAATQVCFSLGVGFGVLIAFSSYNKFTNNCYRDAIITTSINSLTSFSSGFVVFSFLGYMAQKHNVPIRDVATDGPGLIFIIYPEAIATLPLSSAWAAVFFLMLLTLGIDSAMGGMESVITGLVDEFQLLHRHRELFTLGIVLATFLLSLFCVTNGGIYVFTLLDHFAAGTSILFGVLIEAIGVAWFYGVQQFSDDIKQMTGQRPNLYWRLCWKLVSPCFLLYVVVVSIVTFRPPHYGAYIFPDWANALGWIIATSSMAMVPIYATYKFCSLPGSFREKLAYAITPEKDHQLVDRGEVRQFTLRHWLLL

[11] = biological target: T1, Voltage-gated inwardly rectifying potassium channel KCNH2; experiment: Inhibition of human ERG expressed in CHO-K1 cells by automated Patch Clamp method; type: cell-based
[12] = Oral bioavailability in Sprague-Dawley rat at 10 mg/kg measured upto 12 hrs by LC/MS/MS analysis; type: ADME, organism-based; settings: in vivo
[13] = Tmax in Sprague-Dawley rat at 10 mg/kg, po measured upto 12 hrs by LC/MS/MS analysis; type: ADME, organism-based; settings: in vivo
[14] = Genotoxicity in Salmonella typhimurium; type: toxicity; settings: salmonella enterica subsp. enterica serovar typhimurium
[15] = Half-life in Sprague-Dawley rat at 10 mg/kg, po measured upto 12 hrs by LC/MS/MS analysis; type: ADME, organism-based; settings: in vivo
[16] = Cmax in Sprague-Dawley rat at 10 mg/kg, po measured upto 12 hrs by LC/MS/MS analysis; type: ADME, organism-based; design: dose 10 mg/kg, route oral; settings: in vivo
[17] = AUC (0 to infinity) in Sprague-Dawley rat at 10 mg/kg, po measured upto 12 hrs by LC/MS/MS analysis; type: ADME, organism-based; design: dose 10 mg/kg, route oral, time infinity; settings: in vivo
[18] = Half-life in Sprague-Dawley rat at 3 mg/kg, iv administered as single bolus dose measured after 5 to 12 hrs by LC/MS/MS analysis; type: ADME, organism-based; settings: in vivo
[19] = Cmax in Sprague-Dawley rat at 3 mg/kg, iv administered as single bolus dose measured after 5 to 12 hrs by LC/MS/MS analysis; type: ADME, organism-based; design: dose 3 mg/kg, route intravenous; settings: in vivo
[20] = AUC (0 to infinity) in Sprague-Dawley rat at 3 mg/kg, iv administered as single bolus dose measured after 5 to 12 hrs by LC/MS/MS analysis; type: ADME, organism-based; design: dose 3 mg/kg, time infinity, route intravenous; settings: in vivo
[21] = Oral bioavailability in BALB/c mouse at 10 mg/kg measured after 24 hrs by LC/MS/MS analysis; type: ADME, organism-based; settings: in vivo
[22] = Tmax in BALB/c mouse at 10 mg/kg, po measured after 24 hrs by LC/MS/MS analysis; type: ADME, organism-based; settings: in vivo
[23] = AUC (0 to infinity) in BALB/c mouse at 10 mg/kg, po measured after 24 hrs by LC/MS/MS analysis; type: ADME, organism-based; design: dose 10 mg/kg, route oral, time infinity; settings: in vivo
[24] = Cmax in BALB/c mouse at 10 mg/kg, po measured after 24 hrs by LC/MS/MS analysis; type: ADME, organism-based; design: dose 10 mg/kg, route oral; settings: in vivo
[25] = Half-life in BALB/c mouse at 10 mg/kg, po measured after 24 hrs by LC/MS/MS analysis; type: ADME, organism-based; settings: in vivo
[26] = Half-life in BALB/c mouse at 3 mg/kg, iv administered as single bolus dose measured after 24 hrs by LC/MS/MS analysis; type: ADME, organism-based; settings: in vivo
[27] = Clearance in BALB/c mouse at 3 mg/kg, iv administered as single bolus dose measured after 24 hrs by LC/MS/MS analysis; type: ADME, organism-based; settings: in vivo
[28] = Cmax in BALB/c mouse at 3 mg/kg, iv administered as single bolus dose measured after 24 hrs by LC/MS/MS analysis; type: ADME, organism-based; design: dose 3 mg/kg, route intravenous; settings: in vivo
[29] = Solubility of the compound in water; type: physicochemical
[30] = AUC (0 to infinity) in BALB/c mouse at 3 mg/kg, iv administered as single bolus dose measured after 24 hrs by LC/MS/MS analysis; type: ADME, organism-based; design: dose 3 mg/kg, time infinity, route intravenous; settings: in vivo
[31] = biological target: Acidic mammalian chitinase (Homo sapiens, UniProt Q9BZP6); experiment: Inhibition of full-length C-terminal his-tagged human acidic mammalian chitinase expressed in CHOK1 cells assessed as reduction in chitinolytic activity using 4-methylumbelliferyl-beta-D-N,N-diacetylchitobioside hydrate as substrate after 60 mins by fluorometric assay
Acidic mammalian chitinase (Homo sapiens, UniProt Q9BZP6), sequence (Q9BZP6 whole entry): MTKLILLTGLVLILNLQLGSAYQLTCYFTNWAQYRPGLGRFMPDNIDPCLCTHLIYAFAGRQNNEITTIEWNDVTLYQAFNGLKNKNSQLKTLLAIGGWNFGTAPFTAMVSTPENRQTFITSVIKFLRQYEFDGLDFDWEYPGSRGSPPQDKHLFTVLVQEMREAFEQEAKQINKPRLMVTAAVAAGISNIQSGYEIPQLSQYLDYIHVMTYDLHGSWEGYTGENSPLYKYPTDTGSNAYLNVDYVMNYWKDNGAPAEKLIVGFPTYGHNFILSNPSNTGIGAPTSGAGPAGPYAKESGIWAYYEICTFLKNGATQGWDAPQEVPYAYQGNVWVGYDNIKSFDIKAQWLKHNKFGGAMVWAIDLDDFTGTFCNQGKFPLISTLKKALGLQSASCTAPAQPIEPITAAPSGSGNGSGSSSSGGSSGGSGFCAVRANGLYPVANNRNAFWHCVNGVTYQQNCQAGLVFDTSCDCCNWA

T1 sequence (Q12809 whole entry): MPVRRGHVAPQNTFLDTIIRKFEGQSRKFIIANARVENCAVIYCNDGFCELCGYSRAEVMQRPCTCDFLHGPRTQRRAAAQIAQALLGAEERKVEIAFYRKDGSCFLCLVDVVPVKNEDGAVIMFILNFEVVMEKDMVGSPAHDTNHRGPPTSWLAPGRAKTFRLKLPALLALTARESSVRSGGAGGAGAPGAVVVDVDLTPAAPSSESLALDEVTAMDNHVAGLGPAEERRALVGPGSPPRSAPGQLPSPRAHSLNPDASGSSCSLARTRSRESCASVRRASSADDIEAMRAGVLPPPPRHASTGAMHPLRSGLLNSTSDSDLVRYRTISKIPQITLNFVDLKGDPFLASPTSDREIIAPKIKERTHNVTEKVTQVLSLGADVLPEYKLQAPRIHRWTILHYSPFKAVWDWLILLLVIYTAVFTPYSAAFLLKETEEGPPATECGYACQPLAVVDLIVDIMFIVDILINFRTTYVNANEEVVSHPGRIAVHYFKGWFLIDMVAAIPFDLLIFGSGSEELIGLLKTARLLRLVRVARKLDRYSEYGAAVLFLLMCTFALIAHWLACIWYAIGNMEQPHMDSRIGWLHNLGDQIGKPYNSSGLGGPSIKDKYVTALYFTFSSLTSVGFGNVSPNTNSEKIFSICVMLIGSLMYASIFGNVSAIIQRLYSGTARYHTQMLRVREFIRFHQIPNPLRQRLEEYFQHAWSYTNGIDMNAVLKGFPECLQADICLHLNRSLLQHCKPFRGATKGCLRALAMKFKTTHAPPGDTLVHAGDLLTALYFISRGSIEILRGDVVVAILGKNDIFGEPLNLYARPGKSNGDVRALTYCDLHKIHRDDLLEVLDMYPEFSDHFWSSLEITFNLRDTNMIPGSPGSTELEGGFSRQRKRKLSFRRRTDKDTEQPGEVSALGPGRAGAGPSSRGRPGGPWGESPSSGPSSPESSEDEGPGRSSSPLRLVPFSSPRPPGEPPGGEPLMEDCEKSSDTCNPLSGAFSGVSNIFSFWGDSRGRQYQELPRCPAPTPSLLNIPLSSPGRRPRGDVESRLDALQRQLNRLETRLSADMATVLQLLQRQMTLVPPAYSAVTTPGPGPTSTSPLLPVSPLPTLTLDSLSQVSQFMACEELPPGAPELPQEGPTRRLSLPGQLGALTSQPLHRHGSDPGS

Nc1n[nH]c(N2CCC(N(CCc3ccc(Cl)cc3)C3COC3)CC2)n1
IC50 [1]: 4400 nM
IC50 [2]: 5500 nM
IC50 [3]: 27 nM
IC50 [4]: 180 nM

Nc1n[nH]c(N2CCC(N3CCCC(c4ccc(Cl)cc4)C3)CC2)n1 (centres undefined)
IC50 [2]: 19000 nM
IC50 [3]: 335 nM
IC50 [4]: 1850 nM

CO[C@H](C)CN(CCc1ccc(Cl)cc1)C1CCN(c2nc(N)n[nH]2)CC1
IC50 [1]: 6400 nM
IC50 [2]: 12500 nM
IC50 [3]: 110 nM
IC50 [4]: 530 nM

Nc1nnc(N2CCC(N3C[C@@H](O)C[C@@H]3Cc3ccc(Cl)cc3)CC2)[nH]1
logD [5]: 0.81
IC50 [1]: 13200 nM
IC50 [2]: 520 nM
IC50 [3]: 170 nM

CC(C)(O)CN(CCc1ccc(Cl)cc1)C1CCN(c2nc(N)n[nH]2)CC1
IC50 [1]: 19000 nM
IC50 [2]: 4700 nM
IC50 [3]: 73 nM
IC50 [4]: 395 nM

CNS(=O)(=O)CCN(CCc1ccc(Cl)cc1)C1CCN(c2nc(N)n[nH]2)CC1
inhibition at 2 h, 10 µM [6]: 13%
IC50 [2]: 7550 nM
IC50 [3]: 21 nM
IC50 [4]: 870 nM

CS(=O)(=O)NCCN(CCc1ccc(Cl)cc1)C1CCN(c2nc(N)n[nH]2)CC1
inhibition at 2 h, 10 µM [6]: 4%
IC50 [1]: 7200 nM
IC50 [2]: 12500 nM
IC50 [3]: 22 nM
IC50 [4]: 1200 nM

C[C@@H](O)CN(CCc1ccc(Cl)cc1)C1CCN(c2nc(N)n[nH]2)CC1
IC50 [1]: 6100 nM
IC50 [2]: 6800 nM
IC50 [4]: 330 nM

Nc1nnc(N2CCC(N3CCOC[C@@H]3Cc3ccc(Cl)cc3)CC2)[nH]1
Activity [7]: 37%
Drug uptake [8]: 6.8%
IC50 [9]: 300 nM
IC50 [10]: 7900 nM
IC50 [11]: 12000 nM
bioavailability [12]: 48%
Tmax [13]: 1.5 h
Activity [14]: Non-Toxic
half-life [15]: 2.14 h
Cmax [16]: 1560 ng/mL
AUC(0-inf) [17]: 8010 ng·h/mL
half-life [18]: 7.95 h
Cmax [19]: 16500 ng/mL
AUC [20]: 4980 ng·h/mL
bioavailability [21]: 70%
Tmax [22]: 1 h
AUC(0-inf) [23]: 11100 ng·h/mL
Cmax [24]: 2390 ng/mL
half-life [25]: 2.68 h
half-life [26]: 2.5 h
clearance [27]: 10.5 mL/min/kg
Cmax [28]: 1590 ng/mL
solubility [29]: 310 µg/mL (≈ 823 µM)
AUC(0-inf) [30]: 4760 ng·h/mL
logD [5]: 1.96
inhibition at 2 h, 10 µM [6]: 95%
IC50 [1]: 39000 nM
IC50 [2]: 74 nM
IC50 [3]: 30 nM
IC50 [4]: 48 nM
IC50 [31]: 22 nM

Nc1n[nH]c(N2CCC(N(CCc3ccc(Cl)cc3)CC3CCCCO3)CC2)n1 (centres undefined)
inhibition at 2 h, 10 µM [6]: 50%
IC50 [1]: 11000 nM
IC50 [2]: 750 nM
IC50 [3]: 56 nM
IC50 [4]: 21 nM

C[C@H](O)CN(CCc1ccc(Cl)cc1)C1CCN(c2nc(N)n[nH]2)CC1
IC50 [1]: 14000 nM
IC50 [2]: 2350 nM
IC50 [4]: 145 nM

CO[C@H]1CN(C2CCN(c3nnc(N)[nH]3)CC2)[C@H]1Cc1ccc(Cl)cc1
logD [5]: 1.55
IC50 [1]: 340 nM
IC50 [2]: 5550 nM
IC50 [3]: 485 nM
IC50 [4]: 580 nM

CO[C@@H]1C[C@H](Cc2ccc(Cl)cc2)N(C2CCN(c3n[nH]c(N)n3)CC2)C1
logD [5]: 1.56
IC50 [2]: 255 nM
IC50 [3]: 21 nM
IC50 [4]: 44 nM
